Experiments:
[1] = test system: patients qualified under the DSM-5 definition of autism; experiment: Example 4: Aberrant Behavior Checklist-Community (ABC-C); type: in vivo, human; conditions: for ABC irritability / ABC lethargy / ABC speech / ABC stereotypy / ABC hyperactivity / ABC TOTAL: PT RS; for ABC irritability: initial 3; for ABC lethargy: initial 6; for ABC speech: initial 8; for ABC TOTAL: initial 53
Experimental: α-methyl-DL tyrosine (AMPT) was administered to 3 patients. This group of patients was qualified under the DSM-5 definition of autism and treated. The Aberrant Behavior Checklist-Community (ABC-C), Autism Diagnostic Observation Schedule (ADOS), Conners Parent Rating Scale (CPRS), and General Clinical Impressions scale were used to assess the disease. Videos were taken at each visit.

[2] = test system: male patients diagnosed with autism; experiment: Study HT 02-121: Vineland Adaptive Behavior Scales, Second Edition (VABS II); type: in vivo, human; conditions: Week 4/LOCF
Experimental: This clinical study was a randomized double-blind, placebo-controlled two-cohort, 4-week dose-escalation study that incorporated two open-label treatment groups to assess the safety and efficacy of L1-79 100 mg and 200 mg TID in male patients between the ages of […] years of age diagnosed with autism. The first cohort of 20 patients was comprised of three groups of patients: The first group of five patients received open-label L1-79 100 mg TID and underwent PK and EKG assessments. The remaining two groups in this cohort consisted of 15 patients randomized on a 2:1 basis to receive L1-79 100 mg TID or placebo. The PK and safety data from the open-label L1-79 100 mg TID group was submitted to FDA for review and acceptance before the second cohort was enrolled. The second cohort was procedurally identical to the first. The second cohort of 20 patients was comprised of the same three groups of patients but a dose of 200 mg TID was used instead of 100 mg TID. The key inclusion criteria were as follows: (1) males between 13 and 21 years of age, (2) DSM-5 compliant diagnosis of autism spectrum disorder, confirmed by the Autistic Diagnosis Interview Review (ADIR), and by an ADOS-2 score consistent with a diagnosis of autism, (3) must have been stable on no more than one concomitant medication and no planned changes in psychosocial interventions during the study.
The primary efficacy endpoint was the determination of the clinical improvement by the investigator as documented by the Clinical Global Impression (CGI) rating scales. Additional efficacy endpoints included: (1) changes from baseline in the Socialization and Communication Domains of the Vineland Adaptive Behavior Scales, Second Edition (VABS II) parent/caregiver rating form, (2) changes from baseline in the ADOS-2 Total Score and subscores, (3) changes in the Social Responsiveness Scale, Second Edition (SRS-2) Total Score and subscales, (4) changes in the ABC-C domains, (5) changes in the Repetitive Behavior Scale-Revised (RBS-R) Total Score and subscales. Given the exploratory design of this study only descriptive statistics were planned.
In the preliminary study, all forms were completed at the study site in the presence of the investigator. In Cohort 1 of the present study, the VABS-II, SRS-2, ABC-C and RBS-R were filled out at home by the patient/patient's families prior to treatment visits and returned at treatment visits in order to expedite the execution of the study.

With `CC(N)(Cc1ccc(O)cc1)C(=O)O` (racemic) [L1-79, α-methyl-DL-tyrosine] the ABC-C speech ([1]; PT LR, Day 7, initial 5) was 7, the ABC-C stereotypy ([1]; PT LR, Day 7, initial 13) was 5 and the ABC-C irritability ([1]; PT LR, Day 7, initial 21) was 16. The ABC-C lethargy ([1]; PT LR, Day 7, initial 31) was 12, the ABC-C hyperactivity ([1]; PT LR, Day 7, initial 34) was 31 and the “ABC-C TOTAL” value ([1]; PT LR, Day 7, initial 114) was 71. It also gave an ABC-C speech ([1]; PT LR, Day 14, initial 5) of 7, an ABC-C stereotypy ([1]; PT LR, Day 14, initial 13) of 0 and an ABC-C irritability ([1]; PT LR, Day 14, initial 21) of 16. The ABC-C lethargy ([1]; PT LR, Day 14, initial 31) was 8, the ABC-C hyperactivity ([1]; PT LR, Day 14, initial 34) was 24 and the “ABC-C TOTAL” value ([1]; PT LR, Day 14, initial 114) was 55. The ABC-C speech ([1]; PT LR, Day 21, initial 5) was 7, the ABC-C stereotypy ([1]; PT LR, Day 21, initial 13) was 0 and the ABC-C irritability ([1]; PT LR, Day 21, initial 21) was 16. For the same compound, the ABC-C lethargy ([1]; PT LR, Day 21, initial 31) was 7, the ABC-C hyperactivity ([1]; PT LR, Day 21, initial 34) was 23 and the “ABC-C TOTAL” value ([1]; PT LR, Day 21, initial 114) was 53. The ABC-C speech ([1]; PT LR, Day 28, initial 5) was 7, the ABC-C stereotypy ([1]; PT LR, Day 28, initial 13) was 0 and the ABC-C irritability ([1]; PT LR, Day 28, initial 21) was 16. For the same compound, the ABC-C lethargy ([1]; PT LR, Day 28, initial 31) was 7, the ABC-C hyperactivity ([1]; PT LR, Day 28, initial 34) was 23 and the “ABC-C TOTAL” value ([1]; PT LR, Day 28, initial 114) was 53. It also gave an ABC irritability ([1]; Day 7) of 3, an ABC lethargy ([1]; Day 7) of 3 and an ABC speech ([1]; Day 7) of 3. The ABC stereotypy ([1]; Day 7, initial 16) was 11, the ABC hyperactivity ([1]; Day 7, initial 20) was 8 and the “ABC TOTAL” value ([1]; Day 7) was 28. For the same compound, the ABC irritability ([1]; Day 14) was 1, the ABC lethargy ([1]; Day 14) was 1 and the ABC speech ([1]; Day 14) was 3. For the same compound, the ABC stereotypy ([1]; Day 14, initial 16) was 9, the ABC hyperactivity ([1]; Day 14, initial 20) was 6 and the “ABC TOTAL” value ([1]; Day 14) was 20. It also gave an ABC irritability ([1]; Day 21) of 1, an ABC lethargy ([1]; Day 21) of 1 and an ABC speech ([1]; Day 21) of 3. For the same compound, the ABC stereotypy ([1]; Day 21, initial 16) was 9, the ABC hyperactivity ([1]; Day 21, initial 20) was 6 and the “ABC TOTAL” value ([1]; Day 21) was 20. For the same compound, the ABC irritability ([1]; Day 28) was 1, the ABC lethargy ([1]; Day 28) was 1 and the ABC speech ([1]; Day 28) was 3. The ABC stereotypy ([1]; Day 28, initial 16) was 9, the ABC hyperactivity ([1]; Day 28, initial 20) was 6 and the “ABC TOTAL” value ([1]; Day 28) was 20. The ABC-C speech ([1]; PT WC, Day 7, initial 1) was 0, the ABC-C stereotypy ([1]; PT WC, Day 7, initial 12) was 7 and the ABC-C irritability ([1]; PT WC, Day 7, initial 16) was 4. The ABC-C hyperactivity ([1]; PT WC, Day 7, initial 20) was 10, the ABC-C lethargy ([1]; PT WC, Day 7, initial 21) was 9 and the “ABC-C TOTAL” value ([1]; PT WC, Day 7, initial 70) was 30. The ABC-C speech ([1]; PT WC, Day 14, initial 1) was 0, the ABC-C stereotypy ([1]; PT WC, Day 14, initial 12) was 6 and the ABC-C irritability ([1]; PT WC, Day 14, initial 16) was 2. The ABC-C hyperactivity ([1]; PT WC, Day 14, initial 20) was 7, the ABC-C lethargy ([1]; PT WC, Day 14, initial 21) was 3 and the “ABC-C TOTAL” value ([1]; PT WC, Day 14, initial 70) was 18. The ABC-C speech ([1]; PT WC, Day 21, initial 1) was 0, the ABC-C stereotypy ([1]; PT WC, Day 21, initial 12) was 6 and the ABC-C irritability ([1]; PT WC, Day 21, initial 16) was 2. For the same compound, the ABC-C hyperactivity ([1]; PT WC, Day 21, initial 20) was 7, the ABC-C lethargy ([1]; PT WC, Day 21, initial 21) was 2 and the “ABC-C TOTAL” value ([1]; PT WC, Day 21, initial 70) was 17. It also gave an ABC-C speech ([1]; PT WC, Day 28, initial 1) of 0, an ABC-C stereotypy ([1]; PT WC, Day 28, initial 12) of 6 and an ABC-C irritability ([1]; PT WC, Day 28, initial 16) of 2. For the same compound, the ABC-C hyperactivity ([1]; PT WC, Day 28, initial 20) was 7, the ABC-C lethargy ([1]; PT WC, Day 28, initial 21) was 2 and the “ABC-C TOTAL” value ([1]; PT WC, Day 28, initial 70) was 17. The “VABS II Standardized Communication Score Mean Change from Baseline” value ([2]; DB 100 mg TID) was 10.1, the “VABS II Standardized Communication Score Treatment effect versus placebo” value ([2]; DB 100 mg TID) was 3.6 and the “VABS II Standardized Communication Score change, median” value ([2]; DB 100 mg TID) was −1, 5, 16. For the same compound, the “VABS II Standardized Socialization Score Mean Change from Baseline” value ([2]; DB 100 mg TID) was −4.2, the “VABS II Standardized Socialization Score Treatment effect versus placebo” value ([2]; DB 100 mg TID) was −5.0 and the “VABS II Standardized Socialization Score change, median” value ([2]; DB 100 mg TID) was −13, −12, 9. The “VABS II Standardized Communication Score Mean Change from Baseline” value ([2]; DB 200 mg TID) was 2.7, the “VABS II Standardized Communication Score Treatment effect versus placebo” value ([2]; DB 200 mg TID) was −3.8 and the “VABS II Standardized Communication Score change, median” value ([2]; DB 200 mg TID) was 0, 1, 3. For the same compound, the “VABS II Standardized Socialization Score Mean Change from Baseline” value ([2]; DB 200 mg TID) was 7.6, the “VABS II Standardized Socialization Score Treatment effect versus placebo” value ([2]; DB 200 mg TID) was 6.8 and the “VABS II Standardized Socialization Score change, median” value ([2]; DB 200 mg TID) was 0, 1, 20.
